What was measured:
[1] = target: T1, AAD-12 (v2) (Delftia acidovorans, UniProt P83309); experiment: Colorimetric phenol detection assay of AAD-12 activity; type: biochemical; conditions: for activity of AAD-12 (v2) on substrate (absorbance at 510 nm, FIG. 3): 4.4 μg AAD-12 (v2), 5 minutes
T1 construct: made in house; host or cells: Pseudomonas fluorescens strain MB324 (construct pDAB739)
Protocol: Enzyme activity was measured by colorimetric detection of the product phenol using a protocol modified from that of Fukumori and Hausinger (1993) (J. Biol. Chem. 268: 24311-24317) to enable deployment in a 96-well microplate format. The colorimetric assay has been described for use in measuring the activity of dioxygenases cleaving 2,4-D and dichlorprop to release the product 2,4-dichlorophenol. The color yield from several phenols was compared to that of 2,4-dichlorophenol using the detection method previously described to ascertain which phenol products could be readily detected. […] Pyridinols derived from fluroxypyr and triclopyr produced no significant color. The color yield of 2,4-dichlorophenol was linear and proportional to the concentration of phenol in the assay up to ˜500 μM.
Assays were initiated by addition of the aryloxyalkanoate substrate, enzyme or α-ketoglutarate at time zero. After 5 minutes of incubation at 25° C., the reaction was terminated by addition of 30 μl of a 1:1:1 mix of 50 mM Na EDTA; pH 10 buffer (3.09 g boric acid+3.73 g KCl+44 ml 1 N KOH) and 0.2% 4-aminoantipyrine. Then 10 μl 0.8% potassium ferricyanide was added and after 5 or 10 min, the absorbance at 510 nm was recorded in a spectrophotometric microplate reader. Blanks contained all reagents except for enzyme to account for the occasional slight contamination of some of the substrates by small amounts of phenols.
The results are shown in FIG. 3, which illustrates activity of AAD-12 (v2) on 2,4-D and enantiomers of dichlorprop. 4.4 μg AAD-12 (v2) was incubated with 0.5 mM substrate (1 mM for (R,S)-dichlorprop) and the reaction initiated by addition of α-ketoglutarate. After 5 minutes, the reaction was quenched, and the absorbance at 510 nm determined after addition of colorimetric detection reagents. The background value without enzyme was subtracted.

[2] = system: Pat/Cry1f-Control Arabidopsis; experiment: Foliar-applied auxinic herbicides on transformed control Arabidopsis; type: in vivo, Arabidopsis thaliana; conditions: for Ave % Injury 14DAT: Inactive DCP metabolite
Protocol: (§1) The ability of AAD-12 (v1) to provide resistance to other aryloxyalkanoate auxin herbicides in transgenic Arabidopsis was determined by foliar application of various substrates. T2 generation Arabidopsis seed was stratified, and sown into selection trays much like that of Arabidopsis (Example 6.4). A transformed-control line containing PAT and the insect resistance gene Cry1F was planted in a similar manner. Seedlings were transferred to individual 3-inch pots in the greenhouse. All plants were sprayed with the use of a track sprayer set at 187 L/ha. The plants were sprayed with a range of pyridyloxyacetate herbicides: 280-2240 g ae/ha triclopyr (Garlon 3A, Dow AgroSciences) and 280-2240 g ae/ha fluroxypyr (Starane, Dow AgroSciences); and the 2,4-D metabolite resulting from AAD-12 activity, 2,4-dichlorophenol (DCP, Sigma) (at a molar equivalent to 280-2240 g ac/ha of 2,4-D, technical grade DCP was used). All applications were formulated in water. Each treatment was replicated 3-4 times. Plants were evaluated at 3 and 14 days after treatment.

[3] = system: Segregating T2 AAD-12 (v1) plants (pDAB724.01.1.20); experiment: Foliar-applied auxinic herbicides on T2 Arabidopsis; type: in vivo, Arabidopsis thaliana; conditions: Inactive DCP metabolite
Protocol: as §1

[4] = target: T1, AAD-12 (v2); experiment: Chloropyridinol detection assay (absorbance at 325 nm); type: biochemical; conditions: 6.8 μg AAD-12 (v2), 1 mM substrate; for Rate (mAU/min): 325 nm, background rate 1.4 mAU/min subtracted
Source text: AAD-12 action on potential substrates such as the herbicide triclopyr containing a substituted pyridine (rather than benzene rings) will release a pyridinol on cleavage of the aryloxyalkanoate bond. Pyridinols were not detected using the aminoantipyrine/ferricyanide phenol detection described in the preceding section. […] This was used to create a continuous microplate-based spectrophotometric assay.
All five pyridyloxyalkanoates were cleaved to release pyridinols by AAD-12 (v2). The rates for the oxypropionate substrates 116844 and 91767 were somewhat faster than those for the corresponding acetates (triclopyr and 93833 respectively) indicating a preference of AAD-12 (v2) for oxypropionate over oxyacetate side chains.

[5] = system: AAD-12 x AAD-1 F1 cross tobacco; experiment: Auxinic herbicide cross tolerance of stacked tobacco, F1 cross; type: in vivo, Nicotiana tabacum; conditions: AAD-12 (v1) x AAD (v3) F1; 280 g ae/ha
Protocol: (§2) Homozygous AAD-12 (v1) (pDAS1580) and AAD-1 (v3) (pDAB721) plants (see PCT/US2005/014737 for the latter) were both reciprocally crossed and F1 seed was collected. The F1 seed from two reciprocal crosses of each gene were stratified and treated 4 reps of each cross were treated under the same spray regimen as used for the other testing with one of the following treatments: 70, 140, 280 g ac/ha fluroxypyr (selective for the AAD-12 (v1) gene); 280, 560, 1120 g ae/ha R-dichloroprop (selective for the AAD-1 (v3) gene); or 560, 1120, 2240 g ae/ha 2,4-D DMA (to confirm 2,4-D tolerance). Homozygous T2 plants of each gene were also planted for use as controls. Plants were graded at 3 and 14 DAT.

[6] = system: AAD-12 (v1) (pDAS1580) T2 tobacco plants; experiment: Auxinic herbicide cross tolerance of stacked tobacco, AAD-12 T2; type: in vivo, Nicotiana tabacum; conditions: 280 g ae/ha
Protocol: as §2

[7] = system: AAD-1 (v3) (pDAB721) T2 tobacco plants; experiment: Auxinic herbicide cross tolerance of stacked tobacco, AAD-1 T2; type: in vivo, Nicotiana tabacum; conditions: 280 g ae/ha
Protocol: as §2

[8] = system: wildtype tobacco; experiment: Auxinic herbicide cross tolerance of stacked tobacco, wildtype; type: in vivo, Nicotiana tabacum; conditions: KY160 wildtype control; 280 g ae/ha
Protocol: as §2

[9] = system: PAT/Cry1F Arabidopsis; experiment: Glyphosate postemergence dose response, PAT/Cry1F control; type: in vivo, Arabidopsis thaliana; conditions: 14 DAT
Protocol: (§3) T1 Arabidopsis seed was produced, as previously described, containing the pDAB3759 plasmid (AAD-12 (v1)+EPSPS) which encodes a putative glyphosate resistance trait. T1 transformants were selected using AAD-12 (v1) as the selectable marker as described in example 7.6. T1 plants (individually transformed events) were recovered from the first selection attempt and transferred to three-inch pots in the greenhouse as previously described. Three different control Arabidopsis lines were also tested: wildtype Columbia-0, AAD-12 (v1)+PAT T4 homozygous lines (pDAB724-transformed), and PAT+Cry1F homozygous line (transformed control). The pDAB3759 and pDAB724 transformed plants were pre-selected at the seedling stage for 2,4-D tolerance. Four days after transplanting, plants were evenly divided for foliar treatment by track sprayer as previously described with 0, 26.25, 105, 420, or 1680 g ae/ha glyphosate (Glyphomax Plus, Dow AgroSciences) in water. All treatments were replicated 5 to 20 times. Plants were evaluated 7 and 14 days after treatment.

[10] = system: AAD-12 v1 gene + EPSPS + HptII (pDAB3759) T1 Arabidopsis; experiment: Glyphosate postemergence dose response, AAD-12 + EPSPS stack; type: in vivo, Arabidopsis thaliana; conditions: 14 DAT
Protocol: as §3

[11] = system: pDAB724 T4 (PAT + AAD-12) Arabidopsis; experiment: Glyphosate postemergence dose response, pDAB724 T4; type: in vivo, Arabidopsis thaliana; conditions: 14 DAT
Protocol: as §3

[12] = system: Wildtype (Col-0) Arabidopsis; experiment: Glyphosate postemergence dose response, wildtype; type: in vivo, Arabidopsis thaliana; conditions: 14 DAT
Protocol: as §3

[13] = 280 g ae/ha (molar equivalent of 2,4-D) foliar
[14] = 560 g ae/ha (molar equivalent of 2,4-D) foliar
[15] = 1120 g ae/ha (molar equivalent of 2,4-D) foliar
[16] = 2240 g ae/ha (molar equivalent of 2,4-D) foliar
[17] = 26.25 g ae/ha glyphosate postemergence
[18] = 105 g ae/ha glyphosate postemergence
[19] = 420 g ae/ha glyphosate postemergence
[20] = 1680 g ae/ha glyphosate postemergence

T1 sequence (P83309 whole entry, looked up, natural form): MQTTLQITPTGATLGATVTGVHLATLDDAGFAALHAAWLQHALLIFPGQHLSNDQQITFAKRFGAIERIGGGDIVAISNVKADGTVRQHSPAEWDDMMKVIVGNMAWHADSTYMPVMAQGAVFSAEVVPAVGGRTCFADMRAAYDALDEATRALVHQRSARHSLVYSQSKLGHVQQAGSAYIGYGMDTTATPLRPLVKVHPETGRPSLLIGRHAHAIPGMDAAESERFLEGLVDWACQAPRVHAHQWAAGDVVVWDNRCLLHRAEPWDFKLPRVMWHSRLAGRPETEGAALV

SMILES: CC(Oc1ccc(Cl)cc1Cl)C(=O)O (racemic) [(R,S)-dichlorprop]
- activity of AAD-12 (v2) on substrate (absorbance at 510 nm, FIG. 3) ([1]; 1 mM substrate): excellent activity
- Substrate inhibition at 2 mM ([1]; Phenol detection): 55%
- kcat, min^−1 (±SE) ([1]; Phenol detection): 63.4 (±0.5) min^−1
- Km ([1]; Phenol detection, for (R,S)-dichlorprop calculated assuming 50% of the racemic mixture was available as a substrate, read-out: Km, μM (±SE)): 122 µM

SMILES: Oc1ccc(Cl)cc1Cl [2,4-DCP, 2,4-dichlorophenol]
- Ave % Injury 14DAT [2, 13]: 0%
- Ave % Injury 14DAT [2, 14]: 0%
- Ave % Injury 14DAT [2, 15]: 0%
- Ave % Injury 14DAT [2, 16]: 0%
- effect on plants after foliar application ([2]; molar equivalent to 280-2240 g ae/ha of 2,4-D): no effect
- Ave % Injury 14DAT [3, 13]: 0%
- Ave % Injury 14DAT [3, 14]: 0%
- Ave % Injury 14DAT [3, 15]: 0%
- Ave % Injury 14DAT [3, 16]: 0%

SMILES: C[C@H](Oc1ccc(Cl)cc1Cl)C(=O)O [(S)-dichlorprop]
- activity of AAD-12 (v2) on substrate (absorbance at 510 nm, FIG. 3) ([1]; 0.5 mM substrate): excellent activity

SMILES: CC(Oc1ncc(Cl)cc1Cl)C(=O)O (stereo not drawn) [compound 66357]
- Rate relative to triclopyr [4]: 2.3
- Rate (mAU/min) [4]: 225 mAU/min

SMILES: CC(Oc1nc(F)c(Cl)cc1Cl)C(=O)O (stereo not drawn) [compound 91767]
- Rate relative to triclopyr [4]: 0.8
- Rate (mAU/min) [4]: 190 mAU/min

SMILES: O=C(O)COc1nc(F)c(Cl)cc1Cl [compound 93833]
- Rate relative to triclopyr [4]: 0.5
- Rate (mAU/min) [4]: 118 mAU/min

SMILES: CC(Oc1nc(Cl)c(Cl)cc1Cl)C(=O)O (stereo not drawn) [compound 116844]
- Rate relative to triclopyr [4]: 1.4
- Rate (mAU/min) [4]: 257 mAU/min

SMILES: Nc1c(Cl)c(F)nc(OCC(=O)O)c1Cl [fluroxypy]
- Average % injury 14 DAT [5]: 3%
- Average % injury 14 DAT [6]: 3%
- Average % injury 14 DAT [7]: 75%
- Average % injury 14 DAT [8]: 75%

SMILES: O=C(O)CNCP(=O)(O)O [glyphosate]
- % Injury 20-40% (number of individuals) [9, 17]: 0
- % Injury <20% (number of individuals) [9, 17]: 0
- % Injury >40% (number of individuals) [9, 17]: 5
- % Injury Ave [9, 17]: 67%
- % Injury 20-40% (number of individuals) [9, 18]: 0
- % Injury <20% (number of individuals) [9, 18]: 0
- % Injury >40% (number of individuals) [9, 18]: 5
- % Injury Ave [9, 18]: 100%
- % Injury 20-40% (number of individuals) [9, 19]: 0
- % Injury <20% (number of individuals) [9, 19]: 0
- % Injury >40% (number of individuals) [9, 19]: 5
- % Injury Ave [9, 19]: 100%
- % Injury 20-40% (number of individuals) [9, 20]: 0
- % Injury <20% (number of individuals) [9, 20]: 0
- % Injury >40% (number of individuals) [9, 20]: 5
- % Injury Ave [9, 20]: 100%
- % Injury 20-40% (number of individuals) [10, 17]: 2
- % Injury <20% (number of individuals) [10, 17]: 13
- % Injury >40% (number of individuals) [10, 17]: 1
- % Injury Ave [10, 17]: 11%
- % Injury 20-40% (number of individuals) [10, 18]: 1
- % Injury <20% (number of individuals) [10, 18]: 10
- % Injury >40% (number of individuals) [10, 18]: 5
- % Injury Ave [10, 18]: 34%
- % Injury 20-40% (number of individuals) [10, 19]: 6
- % Injury <20% (number of individuals) [10, 19]: 5
- % Injury >40% (number of individuals) [10, 19]: 5
- % Injury Ave [10, 19]: 44%
- % Injury 20-40% (number of individuals) [10, 20]: 0
- % Injury <20% (number of individuals) [10, 20]: 0
- % Injury >40% (number of individuals) [10, 20]: 16
- % Injury Ave [10, 20]: 85%
- % Injury 20-40% (number of individuals) [11, 17]: 0
- % Injury <20% (number of individuals) [11, 17]: 0
- % Injury >40% (number of individuals) [11, 17]: 5
- % Injury Ave [11, 17]: 66%
- % Injury 20-40% (number of individuals) [11, 18]: 0
- % Injury <20% (number of individuals) [11, 18]: 0
- % Injury >40% (number of individuals) [11, 18]: 5
- % Injury Ave [11, 18]: 100%
- % Injury 20-40% (number of individuals) [11, 19]: 0
- % Injury <20% (number of individuals) [11, 19]: 0
- % Injury >40% (number of individuals) [11, 19]: 5
- % Injury Ave [11, 19]: 100%
- % Injury 20-40% (number of individuals) [11, 20]: 0
- % Injury <20% (number of individuals) [11, 20]: 0
- % Injury >40% (number of individuals) [11, 20]: 5
- % Injury Ave [11, 20]: 100%
- % Injury 20-40% (number of individuals) [12, 17]: 0
- % Injury <20% (number of individuals) [12, 17]: 0
- % Injury >40% (number of individuals) [12, 17]: 5
- % Injury Ave [12, 17]: 75%
- % Injury 20-40% (number of individuals) [12, 18]: 0
- % Injury <20% (number of individuals) [12, 18]: 0
- % Injury >40% (number of individuals) [12, 18]: 5
- % Injury Ave [12, 18]: 100%
- % Injury 20-40% (number of individuals) [12, 19]: 0
- % Injury <20% (number of individuals) [12, 19]: 0
- % Injury >40% (number of individuals) [12, 19]: 5
- % Injury Ave [12, 19]: 100%
- % Injury 20-40% (number of individuals) [12, 20]: 0
- % Injury <20% (number of individuals) [12, 20]: 0
- % Injury >40% (number of individuals) [12, 20]: 5
- % Injury Ave [12, 20]: 100%
